Test results published in patent publication US20030225049A1, “Method of treatment for increasing the number of NMDA receptors in a mammalian brain” (UNIVERSITE PARIS VI, priority 1998, published 2003).

Assays:
Format in all cases: in vivo
[1] = test system: NR1 subunit of the NMDA receptor; assay: Immunohistochemistry of NR1 subunits of NMDA receptors in rat brain after DHEAS treatment; conditions: after 5, 20 and 30 days of treatment, 30 mg/kg i.p. twice daily
Protocol: (§1) Male Wistar rats weighing 200-220 g (IFFA CREDO, Paris) were housed at 21° C. with a standard 12 h light/12 h dark cycle and with food and water being freely available. The animals received intraperitoneal (i.p.) injections of either the vehicle dimethyl sulfoxide (DMSO; 0.2 ml/250 g body weight(b.w.) or dehydroepiandrosterone sulfate (DHEAS; 30 mg/kg b.w. dissolved in DMSO (0.2 ml/250 g b.w)) twice daily, at 8 a.m. and 6 p.m., for a period of either 5, 20 or 30 days. The last injection was given at 8 a.m. of the 5th, 20th or 30th day. All the animals were killed 2 hours after the last injection. Six groups of animals (ten animals per group) were used. Three control groups received DMSO alone for a period of 5, 20 or 30 days respectively, and, in a similar manner, three groups received DHEAS treatment for a period of 5, 20 or 30 days respectively.
(§2) The rats were killed by decapitation and the brains were rapidly removed from the skull, quickly frozen in liquid isopentane at −40° C., and kept at −80° C. until sectioned. The frozen brains were cut into 20 um thick sections in a cryostat (Frigocut 2800, Reichert Jung). […]
(§3) The increase can be quantified by the SCION program developed at the National Institutes of Health (USA). […]

[2] = test system: NR2 subunits of NMDA receptors (NMDA R2 A/B); assay: Immunohistochemistry of NR2 subunits of NMDA receptors in rat brain after DHEAS treatment; conditions: after 5, 20 and 30 days of treatment, 30 mg/kg i.p. twice daily
Protocol: as §1, §2, §3

[3] = test system: NMDA receptors; assay: Effect of DHEAS treatment on [3H]-MK801-labeled NMDA receptor sites in rat brain (quantitative autoradiography); conditions: male Wistar rats, 30 mg/kg i.p. twice daily for 5 days
Description: 1.1 Labeling the NMDA Receptors with the Ligand [^3H]-MK801
The NMDA receptors in the rat brain were labeled by means of the quantitative autoradiography technique, thereby making it possible to visualize and quantify the number of receptors in different regions of the brain.
The radioactive ligand which makes it possible to specifically recognize the sites of the NMDA receptors is tritium-labeled dizocilpine (MK801), i.e. [^3H]-MK801 (Kemp et al. TINS (1987) 294-298).
Male rats (Wistar) weighing between 200 and 220 g were decapitated. Their brains were rapidly removed and placed in liquid isopentane at a temperature of −40° C. The brains were then stored at −80° C. until used.
Brain sections having a thickness of […] were obtained using a Frigocut 2800® cryostat, which is marketed by Reichert Jung.
The brain sections were preincubated in a 50 mM Tris-acetate, pH 7.4, buffer at 4° C. for 30 minutes. They were then dried rapidly at room temperature.
The sections were then incubated with the radioligand [^3H]-MK801, sold by New England Nuclear (Boston, Mass., USA) and having a specific activity of 24 Ci/mmol, at a concentration of 5 nM in the abovementioned buffer at 4° C. for a period of 4 hours.
Control sections were incubated with MK801, which was present at a concentration of 10^−5 M and which was not labeled with tritium, in order to determine non-specific binding.
All the sections were then rinsed for 5 seconds and then for 90 minutes in the same cold buffer.
The sections were dried at room temperature and then exposed on tritium-hyperfilm films (Amersham) at 4° C. in the dark for 4 weeks in autoradiography cassettes.
The films were developed for 2 minutes in a Kodak D19 developer and then fixed in Kodak Rapid fixer and finally rinsed for an hour in running water.
The autoradiographic labeling was quantified by densitometry using the RAG-200 software sold by BIOCOM (Les Ulis, France), and the binding was measured by relative optical density.
30 mg of DHEAS were administered/kg, intraperitoneally and twice daily, to non-castrated male Wistar rats for 5 days. The rats were sacrificed on the 5th day, 30 minutes after the last injection of DHEAS.
The apparent [^3H]-MK801-binding sites are measured by optical density OD for the total specific binding of [^3H]-MK801 in the cortex and different regions of the hippocampus: CA1; CA3; lateral blade of the dentate gyrus, DG1b, and the median blade of the dentate gyrus, DGmb.

dehydroepiandrosterone sulfate [DHEAS]
number of NR1 subunits (in words) [1]: clear increase
NR2 subunits (in words) [2]: slight increase
number of [3H]-MK801 sites, OD ([3]; CA1): 54.01 ± 4.05
number of [3H]-MK801 sites, OD ([3]; CA3): 33.37 ± 4.94
number of [3H]-MK801 sites, OD ([3]; Cortex): 24.88 ± 2.73
number of [3H]-MK801 sites, OD ([3]; DG1b (dentate gyrus, lateral blade)): 42.15 ± 4.31
number of [3H]-MK801 sites, OD ([3]; DGmb (dentate gyrus, medial blade)): 43.13 ± 3.53
